Measured values published in the supplement of paper PMC10307832.

Assays:
Experiment in all cases: relative viability (nuclei count vs DMSO), 5 days (fraction); higher = more cells survive
AZD5582 + Tozasertib = compound: C[C@@H](C(=O)N[C@@H](C1CCCCC1)C(=O)N2CCC[C@H]2C(=O)N[C@@H]3[C@@H](CC4=CC=CC=C34)OCC#CC#CCO[C@@H]5CC6=CC=CC=C6[C@@H]5NC(=O)[C@@H]7CCCN7C(=O)[C@H](C8CCCCC8)NC(=O)[C@H](C)NC)NC [AZD5582] + Cc1cc(Nc2cc(N3CCN(C)CC3)nc(Sc3ccc(NC(=O)C4CC4)cc3)n2)n[nH]1 [Tozasertib] (partner 0.1 µM)
Method in brief: (§1)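 Relative viability equals treated-well nuclei counts divided by vehicle-well nuclei counts. Counts came from 4× images of lung cancer cell lines grown in 1536-well plates for 5 days after pin-tool dosing on the day after seeding. Dosing used one drug alone or a fixed anchor-drug dose plus five library-drug doses (not always all listed) in √10 steps, and values are medians of duplicate plates.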

[1] = compound: Cn1nnc2c(C(N)=O)ncn2c1=O [Temozolomide] + C[C@]1(O)C[C@@H](c2nc(-c3ccc4ccc(-c5ccccc5)nc4c3)c3c(N)nccn32)C1 [Linsitinib] (partner 1 µM)
Method in brief: as §1

[2] = compound: Cn1nnc2c(C(N)=O)ncn2c1=O [Temozolomide] + CC(=O)c1c(C)c2cnc(Nc3ccc(N4CCNCC4)cn3)nc2n(C2CCCC2)c1=O [Palbociclib] (partner 0.5 µM)
Method in brief: as §1

[3] = compound: Cn1nnc2c(C(N)=O)ncn2c1=O [Temozolomide] + CC1(C)CCC(c2ccc(Cl)cc2)=C(CN2CCN(c3ccc(C(=O)NS(=O)(=O)c4ccc(N[C@H](CCN5CCOCC5)CSc5ccccc5)c(S(=O)(=O)C(F)(F)F)c4)cc3)CC2)C1 [Navitoclax] (partner 0.5 µM)
Method in brief: as §1

Cell Line | relative viability (AZD5582 + Tozasertib; first compound 0.001581 µM) | relative viability (AZD5582 + Tozasertib; first compound 0.005 µM) | relative viability (AZD5582 + Tozasertib; first compound 0.01581 µM) | relative viability (AZD5582 + Tozasertib; first compound 0.05 µM) | relative viability ([1]; first compound 0.2 µM) | relative viability ([1]; first compound 0.6325 µM) | relative viability ([1]; first compound 2 µM) | relative viability ([1]; first compound 6.325 µM) | relative viability ([1]; first compound 20 µM) | relative viability ([2]; first compound 0.2 µM) | relative viability ([2]; first compound 0.6325 µM) | relative viability ([2]; first compound 2 µM) | relative viability ([2]; first compound 6.325 µM) | relative viability ([2]; first compound 20 µM) | relative viability ([3]; first compound 0.2 µM) | relative viability ([3]; first compound 0.6325 µM) | relative viability ([3]; first compound 2 µM) | relative viability ([3]; first compound 6.325 µM) | relative viability ([3]; first compound 20 µM)
HOP-62 | 0.318 | 0.339 | 0.35 | 0.32 | 1.05 | 1.01 | 0.895 | 0.832 | 0.866 | 0.545 | 0.488 | 0.473 | 0.375 | 0.447 | 1.05 | 1 | 1.13 | 0.941 | 1.14
NCI-H1993 | 0.599 | 0.681 | 0.547 | 0.567 | 0.725 | 0.727 | 0.698 | 0.744 | 0.708 | 0.558 | 0.772 | 0.618 | 0.755 | 0.589 | 0.823 | 0.893 | 0.889 | 0.879 | 0.804
NCI-H1793 | 0.241 | 0.486 | 0.303 | 0.454 |  | 0.884 | 1.15 | 0.846 | 0.839 |  | 0.268 | 0.367 | 0.318 | 0.264 |  | 0.358 | 0.415 | 0.506 | 0.3
HCC-15 | 0.375 | 0.42 | 0.473 | 0.459 | 0.976 | 0.905 | 0.928 | 0.858 | 0.888 | 0.778 | 0.717 | 0.805 | 0.691 | 0.706 | 0.746 | 0.731 | 0.805 | 0.687 | 0.689
NCI-H1437 | 0.373 | 0.385 | 0.399 | 0.358 | 1.15 | 1.02 | 1.11 | 1.01 | 1.14 | 0.292 | 0.336 | 0.31 | 0.329 | 0.325 | 1.15 | 1.12 | 1.13 | 1.13 | 1.17
